3 compounds from US20100234220A1, “Oxooxetanes as Fungicidal Agents” (Bayer CropScience AG, priority 2006, published 2010) can be followed below.

One may read the chromatographic logP as lipophilicity estimated from chromatographic retention. Lower therefore signals lower lipophilicity.

One series has as its system Venturia inaequalis. As to the kind of experiment: Venturia test (apple)/protective. Conditions: protective, 100 ppm, evaluation 10 days after inoculation. Format: in vivo. Here is the method: Venturia Test (Apple)/Protective [table] To produce a suitable preparation of active compound, 1 part by weight of active compound is mixed with the stated amounts of solvents and emulsifier, and the concentrate is diluted with water to the desired concentration. To test for protective activity, young plants are sprayed with the preparation of active compound at the stated application rate. After the spray coating has dried on, the plants are inoculated with an aqueous conidia suspension of the apple scab pathogen Venturia inaequalis and then remain in an incubation cabin at about 20° C. and 100% relative atmospheric humidity for 1 day. The plants are then placed in a greenhouse at about 21° C. and a relative atmospheric humidity of about 90%.

Series [1] in a line: logP determination by HPLC (gradient method, 0.08% HCO2H).

Consider `CC[C@H](C)[C@@H]1C(=O)O[C@H]1C(=O)NCc1cc(OC)cc(OC)c1` [Example 1, (3S)-(1S-Methylpropyl)-(2R)-(3,5-dimethoxybenzylaminocarbonyl)-4-oxooxetane], for which the efficacy in the series with Venturia inaequalis is listed as no less than 70%.

Turning to `CC[C@H](C)[C@@H]1C(=O)O[C@H]1C(=O)NCc1ccc(Cl)cc1` [Example 2, (2R,3S)—N-(4-chlorobenzyl)-3-[(1S)-1-methylpropyl]-4-oxooxetane-2-carboxamide], in series [1], the chromatographic logP was found to be 3.04.

On to `CC[C@H](C)[C@@H]1C(=O)O[C@H]1C(=O)Nc1cc(OC)c(OC)c(OC)c1` [Example 3, (2R,3S)-3-[(1S)-1-methylpropyl]-4-oxo-N-(3,4,5-trimethoxyphenyl)oxetane-2-carboxamide], for which, in series [1], the chromatographic logP turned out to be 2.5.
